From publication PMC5271370, “A High-Content Assay Enables the Automated Screening and Identification of Small Molecules with Specific ALDH1A1-Inhibitory Activity” (PLoS ONE, 2017)
Where two headings read alike, the source gives them in different places.

Key:
[1] = system: breast cancer cells that express ALDH1A3; parameters: method as in PMID 27592281; settings: flow cytometry, at concentrations >10 μM; cited from earlier work
LN-229 cells = assay: 1,536-well high-content imaging ALDEFLUOR assay, LN-229; type: cell-based, human
Experimental: We next sought to test if the fully automated high-content assay could be used to detect ALDH1A1-specific inhibitors.
The ALDEFLUOR kit was purchased from […] Technologies (Vancouver, Canada; #01700). Cells (5 μL) were dispensed into black, optical quality (cyclic olefin copolymer) clear bottom, medium binding TC treated 1,536-well plates (Aurora Microplates, Whitefish MT) using a Multidrop Combi dispenser (ThermoFisher) and incubated overnight (37°C, 5% CO2, 85% RH). Media was subsequently removed by centrifuging plates upside down using a plate adaptor to collect media. A solution of BAAA substrate ([…] Technologies) and Hoechst 33342 (ThermoFisher, final concentrations of 500 nM and 0.5 nM, respectively) in ALDEFLUOR buffer ([…] Technologies #01700) was dispensed onto cells using a Multidrop Combi followed by immediate transfer (23 nL) of compound or control solutions using a Wako Pin-tool (final percentage of DMSO in the cell plates was 0.5%). Unless otherwise noted, all compounds were assayed as 16-point dilutions spanning a final concentration range of 1.4 nM to […]. […] Cells were incubated for 30 minutes or the indicated amount of time at 37°C, 5% CO2, 85% RH to allow the conversion of BAAA into BAA. Supernatant was subsequently removed by centrifugation as described above, then ALDEFLUOR buffer (3 μl) was dispensed by Multidrop Combi before imaging on an IN Cell 2200 (GE Healthcare).
The above assay was modified for an online robotic screening system. After cell plating and overnight incubation, 4 μL of media were removed using a 64-tip metal aspirator head on a Wako aspirator station, leaving 1 μL remaining in the well, followed by a 4 μL dispense of BAAA and Hoechst 33342 in ALDEFLUOR buffer, for a final concentration of 500 nM and 0.5 nM, respectively. Immediately following the dispense, 23 nL of compound or control solutions were transferred using a Wako Pin-tool. […] Plates were then immediately read on the IN Cell 2200 as described below.
For images captured on the IN Cell 2200 widefield automated microscope, a 10x 0.45 NA Plan Apo objective lens was used to capture the entire well of the 1,536-well plate using standard DAPI (390/18x, 432/48m) and FITC (475/28x, 525/48m) filter sets at 50 msec and 100 msec exposures, respectively. Images were subsequently analyzed using IN Cell Investigator v1.6.2 analysis software’s canned Multi-Target Analysis algorithm (GE Healthcare). […]
The same controls were also used for the calculation of the Z’ factor for each assay. The Z’ factor, a measure of assay quality control, was determined as previously described. […] All concentration–response curves were fitted as before and IC50 were calculated with the GraphPad Prism software.

ALDH3A1 = settings: reported ALDH target 3A1; read-out: Reported Biochemical IC50, ALDH3A1; cited from earlier work
ALDH1A3 = settings: reported ALDH target 1A3; read-out: Reported Biochemical IC50, ALDH1A3; cited from earlier work
ALDH1A2 = settings: reported ALDH target 1A2; read-out: Reported Biochemical IC50, ALDH1A2; cited from earlier work

## CC(C)=CCCC(C)=CC=O (mixture of isomers) [Citral]
[1]
  Reduction of ALDEFLUOR fluorescence: significantly reduced ALDEFLUOR fluorescence

## CC(C)N(C(=O)CCl)c1ccccc1 [Propachlor]
LN-229 cells; Homo sapiens, LN-229, read-out: ALDEFLUOR IC50 LN229, retest of screen hits, 11-point dose response 0.77 nM to 45.8 μM
  IC50: 16000 nM
LN-229 cells; read-out: ALDEFLUOR IC50 LN229, retest of screen hits, 11-point dose response 0.77 nM to 45.8 μM
  IC50: 16100 nM

## COc1ccc(C(=O)CCN(C)C)cc1F [Aldi-2]
ALDH3A1
  IC50: 1900 nM

## CC(C)(C)c1ccc(S(=O)(=O)/C=C/C#N)cc1 [Bay-11-7085]
ALDH3A1
  IC50: 100 nM

## CCN(CC)c1ccc(C=O)cc1 [DEAB, 4-N,N-diethylaminobenzaldehyde]
[1]
  Reduction of ALDEFLUOR fluorescence: significantly reduced ALDEFLUOR fluorescence
LN-229 cells; 1,000 cells/well, 500 nM substrate, 30 minutes, read-out: ALDEFLUOR IC50 LN-229
  IC50: ~3480 nM
ALDH1A3
  IC50: 3000 nM
ALDH1A2
  IC50: 1200 nM
